Experimental data as given in US4891319A, “Protection of proteins and the like” (Quadrant Bioresources Limited, priority 1985, dated 1990).

Legend:
Rh D antigen = test: titrated haemagglutination assay of dried human IgM anti-Rh D antibody; assay type: cell-based; conditions: for % activity retained in HA titre: dried antibody, sugar at 5% final concentration
Source text: (§1) They can then be stored at room temperature indefinitely.
3. Trehalose preserves 100% of the antibody activity. A test of five sugars all used at 5% final concentration in a titrated haemagglutination assay gave the following results.
(§2) An additional titration was done to establish whether there is an optimum concentration of trehalose for preservation. The antibodies tested were mouse monoclonal IgM anti A antibody, a mouse monoclonal IgM anti B antibody and a human monoclonal IgM anti Rh antibody used above. They were diluted to an appropriate starting concentration as follows: mouse anti A 1:10, mouse anti B 1:10, human anti Rh (to a final concentration of 20μg/ml). These were titrated 1:3 across a 96 well microtitre plate in Dulbecco's phosphate buffered saline (PBS) in a final volume of 50μl. To each horizontal 8 well row was added 50μl of trehalose at concentrations ranging from 10% w/v to 0.1% w/v. The wells were then dried at 37° overnight. Next day the wells were rehydrated with 100μl distilled water containing buffer sufficient to restore isotonicity. Then 50μl aliquots were transferred to a v-bottom microtitre plate and 25μl of 1% washed human red cells carrying the appropriate blood group antigens added and mixed. Haemagglutination titres were read after 2-3 hours at room temperature. […] With the anti Aantibody any trehalose concentration above 1% preserved maximal activity and with the anti B antibody any concentration above 0.5% preserved maximum activity.

R-phycoerythrin = test: Fluorescence of R-phycoerythrin after drying with or without trehalose; assay type: physicochemical, marine Rhodophyte; conditions: trehalose-containing samples, stored in the dark for 10 months
Experimental: The phycobiliprotein R-phycoerythrin was purified from a marine Rhodophyte. This brilliantly fluorescent red protein was blotted onto nitrocellulose membrane or glass fibre filter paper in phosphate buffer with and without 10% w/v added trehalose and dried at room temperature.
R-phycoerythrin at 5 mg/ml was dried at 37° on glass fibre filter paper (Whatman GF/C), cellulose filter paper (Whatman No. 1) or on nitrocellulose membrane (Schleicher & Schull 0.45μ pore size) in the presence of 5% trehalose in solution and in its absence. In the absence of trehalose the spots of dried R-phycoerythrin changed colour to a purplish red and lost >90% of their fluorescence intensity.

A blood group substance = test: titrated haemagglutination assay of dried mouse IgM anti A antibody; assay type: cell-based, human; conditions: dried at 37° overnight
Experimental: as §1, §2

B blood group substance = test: titrated haemagglutination assay of dried mouse IgM anti B antibody; assay type: cell-based, human; conditions: dried at 37° overnight
Experimental: as §1, §2

rat IgG immunoglobulin = test: indirect agglutination titre of dried or fresh sheep antiserum K237; assay type: cell-based
Experimental: A sheep antiserum to rat IgG immunoglobulin (K237) was titrated in a 96 well flat bottom microtitre plate as 1:3 steps (25μl serum in 50μl PBS). 50μl of 5% w/v trehalose in D.W was then added and the plate dried at 37° in a warm room for 48 hr.
The wells were reconstituted with 100μl distilled water. 50μl of the contents of each well were transferred to v bottom microtitre plates, DA rate erythrocytes were washed ×3 in saline and sensitized by incubation for 2 hr at RT with tissue culture supernatant of the monoclonal antibody R3/13 HLK which is specific for the A^a class 1 transplantation antigen on DA erythrocytes. The red cells were then washed x3 in saline and resuspended at 1% v/v in PBS +1% BSA. The sensitized rat erythrocytes were added. At the same time fresh K237 serum was titrated as above as a positive non-dried control.
The capacity for the dried and fresh serum to cause indirect agglutination of the red cells sensitized by the rat antibody R3/13 was then read.

rat lymphocytes = test: Fluorescence microscopy of labelled rat lymphocytes; assay type: cell-based; conditions: dried with 10% added trehalose
Source text: Fluorescence microscopy using R-phycoerythrin as the fluorochrome was previously very inefficient because of fluorescence fading in aqueous mountants. This can be prevented by drying of the preparation and mounting in a non-polar mountant such as Gurr's Fluoromount, but drying destroys more than 90% of the fluorescence of R-phycoerythrin. This is prevented by drying in the presence of trehalose in the final buffer.
The anti CD4 monoclonal antibody W3/25 was coupled with biotin-linker-arm N-hydroxysuccinimide ester and used in saturating doses to label the T helper subset of rat lymphocytes. These labelled cells were then detected with a second stage staining using a streptavidin-R-phycoerythrin conjugate. After a final wash the cells were divided into four aliquots and one was examined in the FACS to illustrate correct labelling with these reagents. […] Smears were made and dried and then mounted in Fluoromount. The fourth aliquot was mounted wet in PBS. All three preparations were examined in a Zeiss photomicroscope II with Ploem optics.

[1] = tested on: alkaline phosphate from calf intestine; test: Preservation of dried alkaline phosphatase activity; assay type: biochemical; conditions: dried at 37° with 5% trehalose, 4 weeks at room temperature
Experimental: The mammalian enzyme alkaline phosphate from calf intestine was serially diluted in phosphate buffered saline (PBS) and added to the wells of a NUNC Immunoplate. After overnight incubation to bind the enzyme to the plastic surface, the wells were washed, shaken free of liquid, and dried at 37° in the presence or absence of 5% trehalose in distilled water. […] At the end of this time the wells were rehydrated with distilled water and substrate added. A positive control consisted of fresh dilutions of the enzyme. The activity of one enzyme was measured by the standard test of […] p-nitrophenylphosphate and monitoring the optical density at 405 nm.

[2] = tested on: guinea pig serum complement; test: CH50 assay, preservation of dried serum complement; assay type: cell-based
Experimental: Guinea pig serum was prepared fresh and frozen in aliquots at -196° until use. As target cells, washed sheep erythrocytes (SRBC) which had been stored in Alsever's solution for up to 2 weeks were incubated with the bovine monoclonal anti-Forrsman antibody 94A1-AZA for 1 hr at 4° and then washed in complement fixation diluent (CFD). Freshly thawed guinea pig serum was diluted in CFD where required in flat bottom microtitre plate (NUNC, Denmark) and trehalose added at various concentrations. […] For the CH50 assay (P.J. Lachmann and M.J. Hobart in "Handbook of Experimental Immunology" ed. D.M. Weir, Blackwell 1978), dried or fresh complement was titrated out in a U bottom microtitre plate and sensitised SRBC added to a final concentration of 2%. […] The endpoint was measured as the cup in which 50% of the erythrocytes remained as a button.

fixed red cells = test: Drying of antigen- or antibody-coupled fixed red blood cells; assay type: cell-based; conditions: dried in the presence of trehalose
Source text: Upon rehydration the coupled, fixed red cells can be resuspended to form a perfect single cell suspension which then behaves as a fresh red cell suspension does in haemagglutination assays.

cellular organelles = conditions: loss of bound water; cited from earlier work
rat IgG = test: indirect haemagglutination titre of K237 antiserum dried on matrices and eluted; assay type: cell-based; conditions: dried on Whatman No. 1 cellulose paper
Experimental: A number of different matrices were examined for use as a trehalose support. They include pure cellulose paper (Whatman No. 1 filter paper), glass fibre paper (What man GF/A and GF/C papers), polyurethane sponge foam and porous polyethylene sheet. These matrices were soaked in trehalose dissolved in distilled water at various concentrations from 10% down to 1% and dried at 37°. […] Various sera were applied to the paper and dried at 37°. After various periods of storage at 37+, samples were eluted with distilled water or normal saline; usually used in a volume 2-4 times that of the original serum sample so that their potency could be directly compared with fresh non-dried samples of the same sera.
K237, a sheep antiserum against rat IgG, was dried on to 10% trehalose-impregnated cellulose paper, glass fibre paper and porous polyethylene sheet and stored for 7 days at 37° C.
The paper or sheet was eluted with 4 volumes of normal saline and titrated in an indirect haemagllutination assay for its ability to agglutinate DA strain rat erythrocytes coated with a monoclonal antibody (JN2/85) against the class 1 antigens expressed on the erythrocyte membranes.
The same antiserum was then tested by drying on the Whatman No. 1 cellulose paper in the presence of various sugars and in the absence of sugar.

[3] = molar basis; cited from earlier work
haemoglobin = test: Spectral properties and gas exchange of dried haemoglobin; assay type: physicochemical; conditions: oxy and carboxy forms dried in the presence of trehalose
Source text: Many macromolecular functions require mobility of the macromolecule e.g. antibodies have to physically move into close proximity to their antigen in order for binding to occur through electrostatic and hydrophobic interactions. The same is true of enzymes binding their substrates. Minor molecular motion is also required for other macromolecular functions. Thus haemoglobin undergoes rotation and movement of certain amino acids during the reversible binding of oxygen and carbon dioxide. None of this molecular mobility is observed in the dry state.
In contrast, the fluorescence of R-phycoerythrin involves "movement" only on the sub atomic level. Absorption of light energy at low wavelengths e.g. (488 nm) causes electrons in the chromophores to shift to higher energy orbits. Fluorescence at longer wavelengths is due to the emission of photons when these electrons jump back to lower energy orbits. […] This method is therefore of great interest in the application of biological (and synthetic) macromolecules in new electronic applications. Examples include proton and electron pumping (such as is mediated, on exposure to light, by bacteriorhodopsin and rhodopsin). […]

horseradish peroxidase = test: Preservation of dried horseradish peroxidase activity; assay type: biochemical; conditions: dried with or without trehalose; compared with alkaline phosphatase

## OC[C@H]1O[C@H](O[C@H]2[C@H](O)[C@@H](O)C(O)O[C@@H]2CO)[C@H](O)[C@@H](O)[C@@H]1O (mixture of isomers) [maltose, reference compound]
Rh D antigen
  % activity retained in HA titre: 11.1%

## OC[C@H]1O[C@H](O[C@H]2O[C@H](CO)[C@@H](O)[C@H](O)[C@H]2O)[C@H](O)[C@@H](O)[C@@H]1O [Trehalose, α-D-glucopyranosyl-α-D-glucopyranoside]
R-phycoerythrin
  fluorescence after storage: without loss of fluorescence
Rh D antigen
  % activity retained in HA titre: 100%
Rh D antigen; human antibody, 2.5% final trehalose, dried at 37° overnight
  maximum preservation of activity: 100%
Rh D antigen; human antibody, 5% final trehalose concentration
  change in titre: slight decrease in titre
Rh D antigen; human antibody, at the drying stage
  final concentration of trehalose at maximum preservation: 2.5%
A blood group substance
  trehalose concentration preserving maximal activity: above 1%
B blood group substance
  trehalose concentration preserving maximum activity: above 0.5%
Rat IgG immunoglobulin; Dried + Trehalose (5% w/v, 37°, 48 hr)
  Titre (cups): 7
Rat IgG immunoglobulin; dried with trehalose
  antibody activity of whole serum preserved: 100%
Rat lymphocytes
  brilliantly fluorescent cells: 75%
  fading of fluorescent cells: did not fade
Rat lymphocytes; several weeks
  fading of labelled cells on repeated examination: no detectable fading
[1]
  retention of enzyme activity: Full retention of activity
[2]; 25% serum, trehalose 0.15M and above
  complement activity preserved: 100%
[2]; 50% normal serum, trehalose 0.22M and above
  complement activity preserved: 100%
[2]; dried with trehalose and reconstituted
  prevention of loss of complement activity: completely prevented
[2]; up to 0.5M, any concentration of serum
  inhibition by high concentrations of trehalose: not inhibitory
Fixed red cells
  function of antibody or antigen coupled to fixed red cell membrane: completely preserves the function of the antibody or antigen
  preservation and resuspension of fixed red cells: completely preserves the fixed red cells themselves
Cellular organelles
  protection of cellular organelles compared with other carbohydrates: significantly superior to other carbohydrates

## O=C[C@H](O)[C@@H](O)[C@H](O)[C@H](O)CO [glucose, reference compound]
Rh D antigen
  % activity retained in HA titre: 1.2%

## OC[C@H]1O[C@H](OC[C@H]2O[C@H](O[C@]3(CO)O[C@H](CO)[C@@H](O)[C@@H]3O)[C@H](O)[C@@H](O)[C@@H]2O)[C@H](O)[C@@H](O)[C@H]1O [raffinose, reference compound]
Rh D antigen
  % activity retained in HA titre: 3.7%
Rat IgG
  difference from the untreated paper: No significant difference

## OC[C@H]1O[C@@](CO)(O[C@H]2O[C@H](CO)[C@@H](O)[C@H](O)[C@H]2O)[C@@H](O)[C@@H]1O [sucrose, reference compound]
Rh D antigen
  % activity retained in HA titre: 11.1%
Rat IgG
  difference from the untreated paper: No significant difference

## R Phycoerythrin
[3]
  brightness relative to fluorescein: 20 times

## haemoglobin
haemoglobin
  spectral properties after drying: retain their spectral properties

## horseradish peroxidase
Horseradish peroxidase
  retention of enzyme activity: Identical results
